The text below walks through data of patent publication US10940173B2, “Cannabis oil extracts and compositions” (priority 2015, dated 2021).

Format in all cases: cell-based
In assay [1] the target is T1, CNR1 (also known as CB1) (Homo sapiens, UniProt P21554). Further details: β-galactosidase enzyme fragment (complementation partner). Conditions: read-out: CNR1 β-Arrestin EC50.
In assay [2] the target is T2, CNR2 (also known as CB2) (Homo sapiens, UniProt P34972). The assay is described as follows: β-arrestin GPCR assay (PathHunter), CNR2. Also noted: β-galactosidase enzyme fragment (complementation partner). The note with it: β-arrestin recruitment. For orientation: Arrestin recruitment assays detect the binding of arrestin to an activated receptor.
Assay [3] concerns the target T2, CNR2 (also known as CB2). Briefly: cAMP competitive inhibition immunoassay (HitHunter), CNR2. The note with it: cAMP assay.
Assay [4] concerns the target T1, CNR1 (also known as CB1). Conditions: read-out: CNR1 cAMP EC50.

Where two headings read alike, the source gives them in different places.

T2 sequence (P34972 whole entry, the tested form may be a part): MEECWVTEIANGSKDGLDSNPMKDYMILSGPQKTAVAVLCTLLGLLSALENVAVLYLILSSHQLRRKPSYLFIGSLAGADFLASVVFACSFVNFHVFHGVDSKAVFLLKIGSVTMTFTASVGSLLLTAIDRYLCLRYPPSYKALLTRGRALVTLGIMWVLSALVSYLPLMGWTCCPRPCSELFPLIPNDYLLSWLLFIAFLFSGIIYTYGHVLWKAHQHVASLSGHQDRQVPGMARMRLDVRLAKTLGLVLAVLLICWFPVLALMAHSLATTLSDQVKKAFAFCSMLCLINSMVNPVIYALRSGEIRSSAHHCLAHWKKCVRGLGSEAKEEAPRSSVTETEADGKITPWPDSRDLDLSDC
T1 sequence (P21554 whole entry, the tested form may be a part): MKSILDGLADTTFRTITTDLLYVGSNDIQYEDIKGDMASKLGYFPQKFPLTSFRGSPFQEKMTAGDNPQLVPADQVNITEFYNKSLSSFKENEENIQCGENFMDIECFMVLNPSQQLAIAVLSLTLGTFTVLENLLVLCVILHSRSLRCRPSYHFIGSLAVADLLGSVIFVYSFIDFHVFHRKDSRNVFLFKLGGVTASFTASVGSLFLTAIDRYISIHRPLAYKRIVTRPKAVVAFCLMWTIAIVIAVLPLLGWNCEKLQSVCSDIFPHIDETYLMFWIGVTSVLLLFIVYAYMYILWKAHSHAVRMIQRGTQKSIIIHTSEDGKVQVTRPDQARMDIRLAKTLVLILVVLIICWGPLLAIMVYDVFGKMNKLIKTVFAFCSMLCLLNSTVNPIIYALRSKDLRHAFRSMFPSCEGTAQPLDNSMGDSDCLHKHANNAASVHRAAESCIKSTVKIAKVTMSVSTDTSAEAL

As a reminder, the EC50 is the concentration that produces a half-maximal response. As for `CCCCCc1cc(O)c2c(c1)OC(C)(C)[C@@H]1CCC(CO)=C[C@@H]21` [Example 11-OH-THC], the EC50 was above 16.7 µM in assay [1], above 16.7 µM in assay [2], 0.571 µM in assay [3] and 0.0108 µM in assay [4].
